Laboratory results: US9822114B2, “Tricyclic oxazolidinone antibiotic compounds” (Idorsia Pharmaceuticals Ltd, priority 2008, dated 2017)
≈ marks a conversion by molar mass, not a printed value.

System: M. catarrhalis A894
Test: Minimal inhibitory concentration (MIC), microdilution method in cation-adjusted Mueller-Hinton Broth (CLSI M7-A7)
Assay type: cell-based
Details: strain A894; for MIC: Moraxella catarrhalis
Experimental: Minimal inhibitory concentrations (MICs; mg/1) were determined in cation-adjusted Mueller-Hinton Broth by a microdilution method following the description given in “Methods for Dilution Antimicrobial Susceptibility Tests for Bacteria that Grow Aerobically”, Approved standard, 7th ed., Clinical and Laboratory Standards Institute (CLSI) Document M7-A7, Wayne, Pa., USA, 2006.

Molecule | MIC | MIC for M. catarrhalis A894
O=C1COc2ccc(N3C[C@@H](CCCN[C@H]4Cn5c(=O)ccc6ccc(F)c4c65)OC3=O)nc2N1 [Example 194, (R)-9-fluoro-1-{3-[(R)-2-oxo-3-(3-oxo-3,4-dihydro-2H-pyrido[3,2-b][1,4]oxazin-6-yl)-oxazolidin-5-yl]-propylamino}-1,2-dihydro-pyrrolo[3,2,1-ij]quinolin-4-one] | ≤ 0.031 µg/mL | 
O=C1COc2ccc(N3C[C@H](CCCN[C@@H]4Cn5c(=O)ccc6ncc(F)c4c65)OC3=O)nc2N1 [Example 151, (S)-3-fluoro-4-{3-[(S)-2-oxo-3-(3-oxo-3,4-dihydro-2H-pyrido[3,2-b][1,4]oxazin-6-yl)-oxazolidin-5-yl]-propylamino}-4,5-dihydro-pyrrolo[3,2,1-de][1,5]naphthyridin-7-one] | ≤ 0.031 µg/mL | 
O=C1CSc2ccc(N3C[C@H](CCNCC4Cn5c(=O)ccc6ccc(F)c4c65)OC3=O)nc2N1 (mixture of isomers) [Example 198, (RS)-9-fluoro-1-({2-[(S)-2-oxo-3-(3-oxo-3,4-dihydro-2H-pyrido[3,2-b][1,4]thiazin-6-yl)-oxazolidin-5-yl]-ethylamino}-methyl)-1,2-dihydro-pyrrolo[3,2,1-ij]quinolin-4-one] | ≤ 0.031 µg/mL | 
O=C1CSc2ccc(N3C[C@@H](CCCN[C@H]4Cn5c(=O)cnc6ccc(F)c4c65)OC3=O)cc2N1 [Example 105, (R)-7-fluoro-6-{3-[(R)-2-oxo-3-(3-oxo-3,4-dihydro-2H-benzo[1,4]thiazin-6-yl)-oxazolidin-5-yl]-propylamino}-5,6-dihydro-pyrrolo[1,2,3-de]quinoxalin-3-one] | ≤ 0.031 µg/mL | 
O=C1CSc2ccc(N3C[C@@H](CCNC[C@H]4Cn5c(=O)ccc6nccc4c65)OC3=O)cc2N1 [Example 76, (S)-4-({2-[(R)-2-oxo-3-(3-oxo-3,4-dihydro-2H-benzo[1,4]thiazin-6-yl)-oxazolidin-5-yl]-ethylamino}-methyl)-4,5-dihydro-pyrrolo[3,2,1-de][1,5]naphthyridin-7-one] | ≤ 0.031 µg/mL | 
O=C1CSc2ccc(N3C[C@@H](CCN[C@@H]4Cn5c(=O)cnc6cccc4c65)OC3=O)cc2N1 [Example 54, (S)-6-{2-[(R)-2-oxo-3-(3-oxo-3,4-dihydro-2H-benzo[1,4]thiazin-6-yl)-oxazolidin-5-yl]-ethylamino}-5,6-dihydro-pyrrolo[1,2,3-de]quinoxalin-3-one] | 0.25 µg/mL (≈ 0.539 µM) | 
O=C1CSc2ccc(N3C[C@H](CCNC[C@]4(O)Cn5c(=O)ccc6nccc4c65)OC3=O)cc2N1 [Example 173, (S)-4-hydroxy-4-({2-[(S)-2-oxo-3-(3-oxo-3,4-dihydro-2H-benzo[1,4]thiazin-6-yl)-oxazolidin-5-yl]-ethylamino}-methyl)-4,5-dihydro-pyrrolo[3,2,1-de][1,5]naphthyridin-7-one] | 0.125 µg/mL (≈ 0.253 µM) | 
O=C1CSc2ccc(N3C[C@H](CNCCC4Cn5c(=O)ccc6ncc(F)c4c65)OC3=O)cc2N1 (mixture of isomers) [Example 16, (4RS)-3-fluoro-4-(2-{[(S)-2-oxo-3-(3-oxo-3,4-dihydro-2H-benzo[1,4]thiazin-6-yl)-oxazolidin-5-ylmethyl]-amino}-ethyl)-4,5-dihydro-pyrrolo[3,2,1-de][1,5]naphthyridin-7-one] | ≤ 0.031 µg/mL | 
O=C1COc2ccc(N3C[C@@H](CNCCC4CN5C(=O)CCc6ccc(F)c4c65)OC3=O)cc2N1 (mixture of isomers) [Example 25, (1RS)-9-fluoro-1-(2-{[(R)-2-oxo-3-(3-oxo-3,4-dihydro-2H-benzo[1,4]oxazin-6-yl)-oxazolidin-5-ylmethyl]-amino}-ethyl)-1,2,5,6-tetrahydro-pyrrolo[3,2,1-ij]quinolin-4-one] | ≤ 0.031 µg/mL | 
O=C1CSc2ccc(N3C[C@@H](CCCN[C@@H]4Cn5c(=O)cnc6ccc(F)c4c65)OC3=O)cc2N1 [Example 58, (S)-7-fluoro-6-{3-[(R)-2-oxo-3-(3-oxo-3,4-dihydro-2H-benzo[1,4]thiazin-6-yl)-oxazolidin-5-yl]-propylamino}-5,6-dihydro-pyrrolo[1,2,3-de]quinoxalin-3-one] | ≤ 0.031 µg/mL | 
O=C1CSc2ccc(N3C[C@@H](CCCNC4Cn5c(=O)cnc6cccc4c65)OC3=O)cc2N1 (mixture of isomers) [Example 20, (6RS)-6-{3-[(R)-2-oxo-3-(3-oxo-3,4-dihydro-2H-benzo[1,4]thiazin-6-yl)-oxazolidin-5-yl]-propylamino}-5,6-dihydro-pyrrolo[1,2,3-de]quinoxalin-3-one] | ≤ 0.031 µg/mL | 
O=C1CSc2ccc(N3C[C@@H](CCCNC4Cn5c(=O)ccc6ccc(F)c4c65)OC3=O)cc2N1 (mixture of isomers) [Example 13, (1RS)-9-fluoro-1-{3-[(R)-2-oxo-3-(3-oxo-3,4-dihydro-2H-benzo[1,4]thiazin-6-yl)-oxazolidin-5-yl]-propylamino}-1,2-dihydro-pyrrolo[3,2,1-ij]quinolin-4-one] | ≤ 0.031 µg/mL | 
O=C1COc2ccc(N3C[C@H](CCCN[C@H]4Cn5c(=O)ccc6ncc(F)c4c65)OC3=O)cc2N1 [Example 141, (R)-3-fluoro-4-{3-[(S)-2-oxo-3-(3-oxo-3,4-dihydro-2H-benzo[1,4]oxazin-6-yl)-oxazolidin-5-yl]-propylamino}-4,5-dihydro-pyrrolo[3,2,1-de][1,5]naphthyridin-7-one] | ≤ 0.031 µg/mL | 
(1R,2R)-4-oxo-1-{3-[(R)-2-oxo-3-(3-oxo-3,4-dihydro-2H-benzo[1,4]thiazin-6-yl)-oxazolidin-5-yl]-propylamino}-1,2-dihydro-4H-pyrrolo[3,2,1-ij]quinoline-2-carboxylic acid methyl ester and (1S,2S)-4-oxo-1-{3-[(R)-2-oxo-3-(3-oxo-3,4-dihydro-2H-benzo[1,4]thiazin-6-yl)-oxazolidin-5-yl]-propylamino}-1,2-dihydro-4H-pyrrolo[3,2,1-ij]quinoline-2-carboxylic acid methyl ester [Example 161] |  | 0.125 µg/mL
O=C1CSc2ccc(N3C[C@@H](CCCN[C@@H]4Cn5c(=O)ccc6cccc4c65)OC3=O)nc2N1 [Example 137, (S)-1-{3-[(R)-2-oxo-3-(3-oxo-3,4-dihydro-2H-pyrido[3,2-b][1,4]thiazin-6-yl)-oxazolidin-5-yl]-propylamino}-1,2-dihydro-pyrrolo[3,2,1-ij]quinolin-4-one] | ≤ 0.031 µg/mL | 
O=C1CSc2ccc(N3C[C@@H](CCNCC4Cn5c(=O)ccc6ccc(F)c4c65)OC3=O)nc2N1 (mixture of isomers) [Example 197, (RS)-9-fluoro-1-({2-[(R)-2-oxo-3-(3-oxo-3,4-dihydro-2H-pyrido[3,2-b][1,4]thiazin-6-yl)-oxazolidin-5-yl]-ethylamino}-methyl)-1,2-dihydro-pyrrolo[3,2,1-ij]quinolin-4-one] | ≤ 0.031 µg/mL | 
O=C1CSc2ccc(N3C[C@@H](CCN[C@H]4Cn5c(=O)ccc6ccc(F)c4c65)OC3=O)cc2N1 (racemic) [Example 14, (1RS)-9-fluoro-1-{2-[(RS)-2-oxo-3-(3-oxo-3,4-dihydro-2H-benzo[1,4]thiazin-6-yl)-oxazolidin-5-yl]-ethylamino}-1,2-dihydro-pyrrolo[3,2,1-ij]quinolin-4-one] | ≤ 0.031 µg/mL | 
O=C1CSc2ccc(N3C[C@H](CNCC4Cn5c(=O)ccc6ncc(F)c4c65)OC3=O)cc2N1 (mixture of isomers) [Example 101, (RS)-3-fluoro-4-({[(S)-2-oxo-3-(3-oxo-3,4-dihydro-2H-benzo[1,4]thiazin-6-yl)-oxazolidin-5-ylmethyl]-amino}-methyl)-4,5-dihydro-pyrrolo[3,2,1-de][1,5]naphthyridin-7-one] | ≤ 0.031 µg/mL | 
